Reference: patent publication US9861616B2, “Methods for treating respiratory diseases and formulations therefor” (priority 2013, dated 2018)
Like-named read-outs stand apart in the source and are kept apart here.

Key:
MRSA SA 2230, SA 2232 = assay: Time-kill macrobroth MICs; type: cell-based, S. aureus
Protocol: (§1) Original MICs of each strain to CEM-101 and other comparators were tested by CLSI microdilution methodology. Trays were obtained from Trek, Inc., Cleveland, Ohio. Time-kill macrobroth MIC dilution by CLSI was performed for all synergy testing.
(§2) Two of the MRSA strains were chosen and tested for synergy, together with the 4 Gram-negative strains mentioned above. Broth macrodilution formed the basis of MICs used in time-kill experiments, as detailed below. The kill kinetics of each drug was tested alone by incubating an initial inoculum of 5×10^5 to 5×10^6 cfu/mL with drug concentrations at the MIC, three dilutions above and three dilutions below the MIC (½, ¼ and ⅛×MIC). Viability counts were performed after 0, 3, 6, 12 and 24 h incubation at 37° C. in a shaking water bath by plating onto trypticase soy-5% sheep blood agar plates.

[1] = system: B. cepacia strains from cystic fibrosis patients; assay: Macrobroth dilution MICs, CF strains; type: cell-based; conditions: 2 B. cepacia strains from cystic fibrosis patients
Protocol: (§3) Two strains each of mucoid P. aeruginosa (both pyocyanin positive) and […] MRSA (only one strain with gold colonies) isolated from patients at a CF clinic were tested. Additionally, 2 B. cepacia strains were acquired, from Hershey Medical Center. All strains were identified by standard methods. Only one strain per patient was tested. MLVA was done on all strains to examine clonality, and confirmed that examination is not taking place on only one or a few clones. Strains will be stored in skim milk at −70° C. until use.
as §1

[2] = system: P. aeruginosa strains from cystic fibrosis patients; assay: Macrobroth dilution MICs, CF strains; type: cell-based; conditions: 2 P. aeruginosa strains from cystic fibrosis patients
Protocol: as §3, §1

[3] = system: B. cepacia BCEP 953, BCEP 954; assay: Time-kill macrobroth MICs; type: cell-based
Protocol: as §1, §2

[4] = system: P. aeruginosa PSAR 461, PSAR 468; assay: Time-kill macrobroth MICs; type: cell-based
Protocol: as §1, §2

[5] = system: MRSA strains from CF patients; assay: Microdilution MICs against 40 MRSA strains from CF patients; type: cell-based, S. aureus
Protocol: as §3, §1

[6] = 40 MRSA strains from CF patients
[7] = Staphylococcus aureus, 40 MRSA strains from CF patients, read-out: MIC50
[8] = Staphylococcus aureus, 40 MRSA strains from CF patients, read-out: MIC90

NCC[C@H](O)C(=O)N[C@@H]1C[C@H](N)[C@@H](O[C@H]2O[C@H](CN)[C@@H](O)[C@H](O)[C@H]2O)[C@H](O)[C@H]1O[C@H]1O[C@H](CO)[C@@H](O)[C@H](N)[C@H]1O [Amikacin]
Time-kill Macrobroth MIC (MRSA SA 2230, SA 2232; strain SA 2230): 32.0 µg/mL
Time-kill Macrobroth MIC (MRSA SA 2230, SA 2232; strain SA 2232): 64.0 µg/mL
MIC Range [1]: 256 µg/mL
MIC Range [2]: 2 to 8 µg/mL
Time-kill Macrobroth MIC ([3]; strain BCEP 953): 512 µg/mL
Time-kill Macrobroth MIC ([3]; strain BCEP 954): 256 µg/mL
Time-kill Macrobroth MIC ([4]; strain PSAR 461): 8.0 µg/mL
Time-kill Macrobroth MIC ([4]; strain PSAR 468): 4.0 µg/mL

CCCCCCCCCC(=O)N[C@@H](Cc1c[nH]c2ccccc12)C(=O)N[C@H](CC(N)=O)C(=O)N[C@@H](CC(=O)O)C(=O)N[C@@H]1C(=O)NCC(=O)N[C@@H](CCCN)C(=O)N[C@@H](CC(=O)O)C(=O)N[C@H](C)C(=O)N[C@@H](CC(=O)O)C(=O)NCC(=O)N[C@H](CO)C(=O)N[C@@H]([C@H](C)CC(=O)O)C(=O)N[C@@H](CC(=O)c2ccccc2N)C(=O)O[C@@H]1C [Daptomycin]
MIC Range [5, 6]: 0.5-1^ μg/mL
MIC50 [5, 7]: 0.5 µg/mL
MIC90 [5, 8]: 1 µg/mL

CC(=O)NC[C@H]1CN(c2ccc(N3CCOCC3)c(F)c2)C(=O)O1 [Linezolid]
MIC Range [5, 6]: 1 to 4 µg/mL
MIC50 [5, 7]: 2 µg/mL
MIC90 [5, 8]: 2 µg/mL

CN(C)c1cc(NC(=O)CNC(C)(C)C)c(O)c2c1C[C@H]1C[C@H]3[C@H](N(C)C)C(O)=C(C(N)=O)C(=O)[C@@]3(O)C(O)=C1C2=O [Tigecycline]
MIC Range [5, 6]: 0.12 to 0.25 µg/mL
MIC50 ([5]; Staphylococcus aureus, MRSA): 0.12 µg/mL
MIC90 ([5]; Staphylococcus aureus, MRSA): 0.25 µg/mL

NC[C@H]1O[C@H](O[C@H]2[C@H](O)[C@@H](O[C@H]3O[C@H](CO)[C@@H](O)[C@H](N)[C@H]3O)[C@H](N)C[C@@H]2N)[C@H](N)C[C@@H]1O [Tobramycin]
Time-kill Macrobroth MIC (MRSA SA 2230, SA 2232; strain SA 2230): 4.0 µg/mL
Time-kill Macrobroth MIC (MRSA SA 2230, SA 2232; strain SA 2232): > 512 µg/mL
MIC Range [1]: 128 µg/mL
MIC Range [2]: 0.25 to 1.0 µg/mL
Time-kill Macrobroth MIC ([3]; strain BCEP 953): 128 µg/mL
Time-kill Macrobroth MIC ([3]; strain BCEP 954): 128 µg/mL
Time-kill Macrobroth MIC ([4]; strain PSAR 461): 2.0 µg/mL
Time-kill Macrobroth MIC ([4]; strain PSAR 468): 1.0 µg/mL

CN[C@H](CC(C)C)C(=O)N[C@H]1C(=O)N[C@@H](CC(N)=O)C(=O)N[C@H]2C(=O)N[C@H]3C(=O)N[C@H](C(=O)N[C@H](C(=O)O)c4cc(O)cc(O)c4-c4cc3ccc4O)[C@H](O)c3ccc(c(Cl)c3)Oc3cc2cc(c3O[C@@H]2O[C@H](CO)[C@@H](O)[C@H](O)[C@H]2O[C@H]2C[C@](C)(N)[C@H](O)[C@H](C)O2)Oc2ccc(cc2Cl)[C@H]1O [Vancomycin]
MIC Range [5, 6]: 0.5-1^ μg/mL
MIC50 ([5]; Staphylococcus aureus, MRSA): 0.5 µg/mL
MIC90 ([5]; Staphylococcus aureus, MRSA): 1 µg/mL

Teicoplanin
MIC50 [5, 6]: 0.5 µg/mL
MIC90 [5, 6]: 1 µg/mL
MIC Range [5, 6]: 0.25 to 1 µg/mL
